Where “and” joins values, the source holds several entries; their conditions need not be identical. Equal entries are not always repeated. Marks after values point to notes of the source that are not given here.
System: patients with advanced solid tumors
Experiment: Treatment-related adverse events and dose-limiting toxicities, phase 1/2a trial CA011-001
Format: in vivo
Procedure: CA011-001 was an open-label study of BMS-986158 monotherapy. Part 1 of the study included a dose-escalation segment and Part 2 was a dose-expansion phase. In Part 1, escalation occurred with an initial dose of BMS-986158 and increased in prespecified increments above the previous dose level until the first occurrence of any protocol-defined dose-limiting toxicity (DLT). Overall, 3 dosing schedules were evaluated to test safety and efficacy (Supplemental Figure S1). Each patient on schedules A, B, and C was administered a single oral dose of BMS-986158 on cycle 1 day 1 (C1D1), and no additional doses were administered until cycle 2 day 1 (C2D1; ≈7 days after C1D1). Beginning on C2D1 and for each subsequent cycle, patients received treatment according to the following schedules. On schedule A, BMS-986158 was administered once daily (QD) for 5 days on and 2 days off with 0.75-, 1.25-, 2.0-, 3.0-, and 4.5-mg escalating doses. On schedule B, patients received BMS-986158 QD for 14 days on and 7 days off with 2.0- and 3.0-mg doses. On schedule C, BMS-986158 QD was given for 7 days on and 14 days off with 2.0-, 3.0-, and 4.5-mg doses. Dose escalation was guided by a modified toxicity probability interval (mTPI) design. In the mTPI design, 3 to 4 patients would be enrolled at each dose level; if a DLT was observed, an additional 3 to 4 patients would be evaluated at the same dose level, up to a total of 13 patients. If no DLTs occurred, 3 to 4 patients would be enrolled at the next dose level. The target DLT rate was 27% to determine the maximum tolerated dose (MTD). For Part 2 of this trial (the dose-expansion phase), schedule A dosing was selected based on safety, pharmacodynamics, and PK data collected in Part 1. The dosing regimen for Part 2 was 4.5 mg for 2 weeks (10 doses) followed by 3.75 mg for the remainder of treatment. However, because study CA011-001 was terminated early with 1 patient enrolled in Part 2, we have grouped this patient with the schedule A, 4.5-mg cohort in Part 1 for the remainder of this report.
Safety was assessed as adverse events (AEs) coded by the Medical Dictionary for Regulatory Activities version 24.0 and the National Cancer Institute’s Common Terminology Criteria for Adverse Events version 4.03. In addition, AEs were classified by whether they were considered possibly or probably treatment related (TRAEs) by investigator assessment, qualified as a serious AE, or led to interruption or discontinuation of study therapy.
All treated patients who received ≥1 dose of BMS-986158 were evaluated in the safety population. […] All treated patients with available and sufficient serum or plasma samples for the corresponding analytes were included in the PK analyses. […] ECG parameters were evaluated in a categorical analysis, and linear mixed-effects regression modeling was used to describe the quantitative relationship between ΔQTcF and time-matched serum concentrations of BMS-986158 or its metabolite at a single dose.
Descriptive summary statistics, including means and 95% CIs, were calculated using the Clopper-Pearson method for ORR and Kaplan–Meier method for PFS and OS. During dose escalation, an mTPI design targeted a 27% DLT rate to guide escalation decisions and the MTD selection. In the dose-escalation segment, the target enrollment was up to 30 patients per schedule and 3–13 DLT-evaluable patients at a dose level, with an aim to determine the MTD. The totality of the data, including PK, pharmacodynamics, and patient overall safety, including at lower dose levels, was also used to select the RP2D.

[1] = Schedule A (5 days on, 2 days off), n = 46
[2] = Schedule B (14 days on, 7 days off), n = 8
[3] = Schedule C (7 days on, 14 days off), n = 29

Cc1nnn(C)c1-c1cnc2c3ccc(C(C)(C)O)cc3n([C@H](c3ccccc3)C3CCOCC3)c2c1 [BMS-986158]
Treatment discontinuation due to a TRAE (grade 3 myocardial infarction) (1 patient, schedule A group at the 4.5-mg dose, of all patients): 1.2% | Incidence of TRAEs (Schedule A (5 days on, 2 days off)): 72% and 71.7% | Anemia (TRAE), any grade [1]: 6 (13.0) n (%) | Anemia (TRAE), grade ≥ 3 [1]: 2 (4.3) n (%) | Decreased appetite (TRAE), any grade [1]: 5 (10.9) n (%) | Decreased appetite (TRAE), grade ≥ 3 [1]: 0 n (%) | Diarrhea (TRAE), any grade [1]: 19 (41.3) n (%) | Diarrhea (TRAE), grade ≥ 3 [1]: 0 n (%) | Discontinuations due to TRAEs, any grade [1]: 1 (2.2) ^d n (%) | Discontinuations due to TRAEs, grade ≥ 3 [1]: 1 (2.2) ^d n (%) | Fatigue (TRAE), any grade [1]: 8 (17.4) n (%) | Fatigue (TRAE), grade ≥ 3 [1]: 2 (4.3) n (%) | Nausea (TRAE), any grade [1]: 7 (15.2) n (%) | Nausea (TRAE), grade ≥ 3 [1]: 1 (2.2) n (%) | Patients with any TRAE, any grade [1]: 33 (71.7) n (%) | Patients with any TRAE, grade ≥ 3 [1]: 19 (41.3) n (%) | Serious TRAEs, any grade [1]: 3 (6.5) ^a,d n (%) | Serious TRAEs, grade ≥ 3 [1]: 3 (6.5) ^a,d n (%) | Thrombocytopenia (TRAE), any grade [1]: 20 (43.5) n (%) | Thrombocytopenia (TRAE), grade ≥ 3 [1]: 16 (34.8) n (%) | Vomiting (TRAE), any grade [1]: 5 (10.9) n (%) | Vomiting (TRAE), grade ≥ 3 [1]: 0 n (%) | DLT grade 4 thrombocytopenia (Schedule A, 2.0 mg): 1/13 | DLT grade 4 thrombocytopenia (Schedule A, 3.0 mg): 1/10 | DLT grade 4 thrombocytopenia (Schedule A, 4.5 mg): 2/13 | Serious TRAEs, incidence (Schedule A, 3 of 46 patients): 6.5% | Anemia (TRAE), any grade [2]: 2 (25.0) n (%) | Anemia (TRAE), grade ≥ 3 [2]: 2 (25.0) n (%) | Decreased appetite (TRAE), any grade [2]: 4 (50.0) n (%) | Decreased appetite (TRAE), grade ≥ 3 [2]: 0 n (%) | Diarrhea (TRAE), any grade [2]: 4 (50.0) n (%) | Diarrhea (TRAE), grade ≥ 3 [2]: 0 n (%) | Discontinuations due to TRAEs, any grade [2]: 0 n (%) | Discontinuations due to TRAEs, grade ≥ 3 [2]: 0 n (%) | Fatigue (TRAE), any grade [2]: 4 (50) n (%) | Fatigue (TRAE), grade ≥ 3 [2]: 1 (12.5) n (%) | Incidence of TRAEs [2]: 100% | Nausea (TRAE), any grade [2]: 1 (12.5) n (%) | Nausea (TRAE), grade ≥ 3 [2]: 1 (12.5) n (%) | Patients with any TRAE, any grade [2]: 8 (100.0) n (%) | Patients with any TRAE, grade ≥ 3 [2]: 4 (50.0) n (%) | Serious TRAEs, any grade [2]: 2 (25.0) ^b n (%) | Serious TRAEs, grade ≥ 3 [2]: 2 (25.0) ^b n (%) | Thrombocytopenia (TRAE), any grade [2]: 5 (62.5) n (%) | Thrombocytopenia (TRAE), grade ≥ 3 [2]: 2 (25.0) n (%) | Vomiting (TRAE), any grade [2]: 2 (25.0) n (%) | Vomiting (TRAE), grade ≥ 3 [2]: 1 (12.5) n (%) | DLT grade 4 thrombocytopenia (Schedule B, 3.0 mg): 2/4 | Serious TRAEs, incidence (Schedule B, 2 of 8 patients): 25.0% | Incidence of TRAEs (Schedule C (7 days on, 14 days off)): 72% and 72.4% | Anemia (TRAE), any grade [3]: 4 (13.8) n (%) | Anemia (TRAE), grade ≥ 3 [3]: 1 (3.4) n (%) | Decreased appetite (TRAE), any grade [3]: 3 (10.3) n (%) | Decreased appetite (TRAE), grade ≥ 3 [3]: 0 n (%) | Diarrhea (TRAE), any grade [3]: 13 (44.8) n (%) | Diarrhea (TRAE), grade ≥ 3 [3]: 0 n (%) | Discontinuations due to TRAEs, any grade [3]: 0 n (%) | Discontinuations due to TRAEs, grade ≥ 3 [3]: 0 n (%) | Fatigue (TRAE), any grade [3]: 4 (13.8) n (%) | Fatigue (TRAE), grade ≥ 3 [3]: 0 n (%) | Nausea (TRAE), any grade [3]: 6 (20.7) n (%) | Nausea (TRAE), grade ≥ 3 [3]: 0 n (%) | Patients with any TRAE, any grade [3]: 21 (72.4) n (%) | Patients with any TRAE, grade ≥ 3 [3]: 5 (17.2) n (%) | Serious TRAEs, any grade [3]: 0 n (%) | Serious TRAEs, grade ≥ 3 [3]: 0 n (%) | Thrombocytopenia (TRAE), any grade [3]: 7 (24.1) n (%) | Thrombocytopenia (TRAE), grade ≥ 3 [3]: 3 (10.3) n (%) | Vomiting (TRAE), any grade [3]: 3 (10.3) n (%) | Vomiting (TRAE), grade ≥ 3 [3]: 1 (3.4) n (%) | Serious TRAEs (Schedule C cohort (n = 29)): no serious TRAEs were reported | DLT grade 4 thrombocytopenia (Schedule C, 4.5 mg): 2/10 | Anemia (TRAE), any grade (Total, N = 83): 12 (14.5) n (%) | Anemia (TRAE), grade ≥ 3 (Total, N = 83): 5 (6.0) n (%) | Decreased appetite (TRAE), any grade (Total, N = 83): 12 (14.5) n (%) | Decreased appetite (TRAE), grade ≥ 3 (Total, N = 83): 0 n (%) | Diarrhea (TRAE), any grade (Total, N = 83): 36 (43.4) n (%) | Diarrhea (TRAE), grade ≥ 3 (Total, N = 83): 0 n (%) | Discontinuations due to TRAEs, any grade (Total, N = 83): 1 (1.2) ^d n (%) | Discontinuations due to TRAEs, grade ≥ 3 (Total, N = 83): 1 (1.2) ^d n (%) | Fatigue (TRAE), any grade (Total, N = 83): 16 (19.3) n (%) | Fatigue (TRAE), grade ≥ 3 (Total, N = 83): 3 (3.6) n (%) | Nausea (TRAE), any grade (Total, N = 83): 14 (16.9) n (%) | Nausea (TRAE), grade ≥ 3 (Total, N = 83): 2 (2.4) n (%) | Patients with any TRAE, any grade (Total, N = 83): 62 (74.7) n (%) | Patients with any TRAE, grade ≥ 3 (Total, N = 83): 28 (33.7) n (%) | Serious TRAEs, any grade (Total, N = 83): 5 (6.0) ^c,d n (%) | Serious TRAEs, grade ≥ 3 (Total, N = 83): 5 (6.0) ^c,d n (%) | Thrombocytopenia (TRAE), any grade (Total, N = 83): 32 (38.6) n (%) | Thrombocytopenia (TRAE), grade ≥ 3 (Total, N = 83): 21 (25.3) n (%) | Vomiting (TRAE), any grade (Total, N = 83): 10 (12.0) n (%) | Vomiting (TRAE), grade ≥ 3 (Total, N = 83): 2 (2.4) n (%) | Anemia as any-grade TRAE, incidence (all patients): 14.5% | Decreased appetite as any-grade TRAE, incidence (all patients): 14.5% | Fatigue as any-grade TRAE, incidence (all patients): 19.3% | Nausea as any-grade TRAE, incidence (all patients): 16.9% | Thrombocytopenia as grade ≥ 3 TRAE, incidence (all patients): 25.3% | Vomiting as any-grade TRAE, incidence (all patients): 12.0% | Thrombocytopenia as TRAE, incidence (all patients, any grade): 39% and 38.6% | Diarrhea as TRAE, incidence (all treatment schedule cohorts, 83 patients, any grade): 43% and 43.4% | Patients who experienced DLTs (among 83 patients, all in part 1): 9 | Patients with grade 3 nausea as a DLT (of 4 patients, Schedule B, 2.0-mg cohort): 1 | Serious TRAEs, incidence (overall study population, 5 of 83 patients): 6%
